BindingDB's records for patent US10508109 (ONCOTHERAPY SCIENCE, INC., 2019)

Target: Histone-lysine N-methyltransferase SUV39H2 (Human, UniProt Q9H5I1)
Test: Suv 39H2 Assay
Description: Assay buffer (4 μL) was added into all the wells, including test compound and control wells (except for Sinefungin control wells), using the Multidrop Combi. The plate was centrifuged at 1000 rpm for 1 min. […] SUV39H2 (8 μL, final conc: optimized for each lot of the enzyme based on specific activity) was added by using the Multidrop Combi. The assay plate was centrifuged at 1000 rpm for 1 min. Assay buffer was used as background control, and incubated at room temperature for 3 hours. The reaction was stopped with 20 μL of 2.5 mg/mL Streptavidin SPA beads (final conc. 50 μg/well) in buffer using the Multidrop Combi and centrifuged for 1 min. The plate was loaded into the Trilux-Microbeta counter and a delayed read of 10 hours was made. The radioactive signal was measured at 1 min/well. Sinefungin and the internal standard compound were used as tool compounds to determine assay performance.

Sequence of Histone-lysine N-methyltransferase SUV39H2 (Q9H5I1 whole entry): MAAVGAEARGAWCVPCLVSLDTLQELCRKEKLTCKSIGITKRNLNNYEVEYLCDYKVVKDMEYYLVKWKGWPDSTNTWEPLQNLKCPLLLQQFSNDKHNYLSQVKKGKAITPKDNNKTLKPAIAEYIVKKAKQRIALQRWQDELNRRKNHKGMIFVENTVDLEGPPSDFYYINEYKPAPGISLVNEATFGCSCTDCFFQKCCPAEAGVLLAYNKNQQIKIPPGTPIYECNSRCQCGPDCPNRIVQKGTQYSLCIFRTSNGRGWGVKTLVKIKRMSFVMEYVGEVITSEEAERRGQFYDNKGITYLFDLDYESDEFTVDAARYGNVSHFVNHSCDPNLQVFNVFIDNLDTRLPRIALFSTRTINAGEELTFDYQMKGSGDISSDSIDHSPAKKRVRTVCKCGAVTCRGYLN

Row | Structure (SMILES) | IC50 [nM]
1 | COc1cc(CO)c(-c2cn3ccc(C4=CCN(CCN5CCCCC5)CC4)cc3n2)cc1Cl [US10508109, Example 147] | 29.5
2 | COc1cc(CO)c(-c2cn3ccc(N4CCN(P(=O)(CO)OC)CC4)cc3n2)cc1Cl (stereo unspecified) [US10508109, Example 203] | 1.77
3 | COc1cc(CO)c(-c2cn3ccc(N4CC[C@H](N)C4)cc3n2)cc1Cl [US10508109, Example 47] | 8.29
4 | COc1cc(CO)c(-c2cn3ccc(N4CCC(NC(N)=O)C4)cc3n2)cc1Cl (stereo unspecified) [US10508109, Example 38] | 4.11
5 | COc1cc(CO)c(-c2cn3ccc(N4CCN(CCNC(=O)OC(C)(C)C)CC4)cc3n2)cc1Cl [US10508109, Example 28] | 21
6 | COc1cc(CO)c(-c2cn3ccc(N4CCN(S(=O)(=O)Cc5ccccc5)CC4)cc3n2)cc1Cl [US10508109, Example 179] | 32.2
7 | COc1cc(CO)c(-c2cn3ccc(N(C)CCNC(=O)OC(C)(C)C)cc3n2)cc1Cl [US10508109, Example 48] | 12.4
8 | COc1cc(CO)c(-c2cn3ccc(OC4CCN(S(=O)(=O)c5cccs5)CC4)cc3n2)cc1Cl [US10508109, Example 280] | 71.1
9 | COc1cc(CO)c(-c2cn3ccc(N4CCC(N5CCCS5(=O)=O)CC4)cc3n2)cc1Cl [US10508109, Example 182] | 6.97
10 | COc1cc(CO)c(-c2cn3ccc(N4CCN(S(=O)(=O)C(C)C)CC4)cc3n2)cc1Cl [US10508109, Example 178] | 14.3
11 | CCCS(=O)(=O)NC1CCN(c2ccn3cc(-c4cc(Cl)c(OC)cc4CO)nc3c2)CC1 [US10508109, Example 174] | 10.4
12 | COc1cc(CO)c(-c2cn3ccc(N4CCC(NS(=O)(=O)N(C)C)CC4)cc3n2)cc1Cl [US10508109, Example 181] | 13.9
13 | COc1cc(CO)c(-c2cn3ccc(N4CCC(N)CC4)nc3n2)cc1Cl [US10508109, Example 42] | 79
14 | COc1cc(CO)c(-c2cn3ccc(N4CCC(NC(=O)CCNC(=O)OC(C)(C)C)C4)nc3n2)cc1Br (stereo unspecified) [US10508109, Example 65] | 14
15 | COc1cc(CO)c(-c2cn3ccc(N4CCC(NC(C)=O)C4)cc3n2)cc1Cl (stereo unspecified) [US10508109, Example 37] | 4.35
16 | COc1cc(CO)c(-c2cn3ccc(N4CCN(CCO)CC4)cc3n2)cc1Cl [US10508109, Example 43] | 8.54
